Assay results reported in paper PMC7136958, “Targeting the pregnane X receptor using microbial metabolite mimicry” (EMBO Molecular Medicine, 2020).

Key:
[1] = test system: IL-8 mRNA; test: TNF-α-induced IL-8 mRNA in human colonic enteroids (Calgary Protocol); format: cell-based; details: 10 μM, pair-wise vs DMSO
Method: Samples were immediately processed to yield isolated colonic crypts as previously described (Fernando et al, 2017). Isolated colonic crypts were embedded in Matrigel® (Corning) and cultured in Intesticult^tm Organoid Growth Media. Human organoids were pretreated for 6 h with either FKK5, FKK6, FKK9, or vehicle (DMSO), then stimulated with human recombinant TNF‐alpha in the presence of either treatment for an additional 12 h. Organoids were washed in PBS, disrupted in Tri Reagent® (Sigma, Oakville, ON, CAN), and frozen at −80°C. After thawing, chloroform was added, samples were centrifuged for 15 min, and the resulting aqueous phase was then added to equal volumes of 70% ethanol and further processed using the RNeasy mini kit (Qiagen). cDNA was synthesized using the QuantiTect RT kit (Qiagen) according to the manufacturer's protocol. Resulting cDNA was used as a template for quantitative real‐time PCR using Perfecta SYBR Green FastMix with ROX (QuantaBio). PCR and analysis were performed using a StepOne PCR System (Applied Biosystems). Gene expression was calculated relative to β‐actin expression and expressed as fold change of control. The primers used were as follows: Human®‐Actin (NM_001101), Human CYP3A4 (NM_001202855), and Human ABCB1 (NM_000927).

[2] = target: T1, PXR (Homo sapiens, UniProt O75469); test: Ligand efficiency metric (LEM) analysis; parameters: expressed in transfected cells; host or cells: LS180; details: NSEI-nBEI plane, from PXR reporter Emax
T1 sequence (O75469 1-434): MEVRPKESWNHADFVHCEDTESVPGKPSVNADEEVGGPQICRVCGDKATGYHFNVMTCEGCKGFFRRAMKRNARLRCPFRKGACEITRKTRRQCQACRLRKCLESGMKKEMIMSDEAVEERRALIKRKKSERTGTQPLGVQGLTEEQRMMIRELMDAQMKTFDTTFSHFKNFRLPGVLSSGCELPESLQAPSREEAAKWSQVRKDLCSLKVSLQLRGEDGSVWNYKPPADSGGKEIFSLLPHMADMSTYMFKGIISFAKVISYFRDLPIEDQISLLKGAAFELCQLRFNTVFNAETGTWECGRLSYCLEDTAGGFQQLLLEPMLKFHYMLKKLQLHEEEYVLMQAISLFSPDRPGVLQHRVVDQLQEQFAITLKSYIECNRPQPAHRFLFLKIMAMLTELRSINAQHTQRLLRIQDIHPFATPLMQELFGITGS
Text: Ligand efficiency metric (LEM) analysis for FKK ligand efficiency. The ligand efficiency metrics (LEMs) of compounds FKK1 to 10 and FKK999 as a reference compound, have been analyzed by using a web tool named AtlasCBS which represents LEMs as variables for a Cartesian mapping of chemico-biological space (CBS). In particular, Cartesian planes combine three critical variables in drug discovery (affinity, size, and polarity) into easily interpretable ‘efficiency planes’ useful to guide a drug discovery process. In the Cartesian plane, each target:ligand pair appears as a point whose coordinates are given by pairs of values derived from the affinity of the ligand toward the target (Ki or equivalent) in relation to its size (MW or number of non-hydrogen atoms NHA), and its polarity (expressed as Polar Surface Area, PSA, or number of polar atoms, NPOL = count of N + O). The first one represents a size-related LEM and the second a polarity-related LEM. Consistently, compounds that correspond to marketed drugs typically occupy the upper right quadrant of the plots (‘Nort h-East’ direction, NE), where both the efficiency -pe r-size and efficiency -per-polarity are optimized 1,2.
Our results are represented in the efficiency plane NS EI-nBEI where:
NSEI = –log Ki/NPOL (N, O) = pKi/NPOL (N, O)
As a measure of activity of the above compounds, the reciprocal of the percentage efficacy values (1/Efficacy [%]) obtained in the PXR-dependent luciferase activity test (Emax values from Fig. 1) were used in lieu of the affinity constants (Ki in the above equations). FKK4 would appear as the most efficient compound since it is placed in the NE panel (GL, unpublished observations). However, this congener might suffer from metabolic liability with its N-protecting group possibly generating toxic aldehydes by oxidative cleavage in vivo. Unambiguously, the two most efficient compounds besides FKK4 are FKK5 and FKK6 which were therefore considered suitable lead compounds, as al so

[3] = test system: NF-κB; test: NF-κB nuclear translocation (immunofluorescence) in Caco-2 cells; format: cell-based, human; details: 25 μM, with cytokines, 2 or 12 h
Method: (§1) HIOs and Caco‐2 were exposed to a pro‐inflammatory cytokine cocktail (10 ng/ml IFN‐γ, 10 ng/ml TNF‐α, 50 ng/ml IL‐1β) for 2–24 h in combination with DMSO or FKK5 and FKK6 compounds (10 and 25 μm). Relative mRNA levels of IL‐8 and IL‐6 were determined using quantitative real‐time PCR, with normalization to GAPDH. RNA was isolated using an RNeasy Mini Kit (Qiagen) as per the manufacturer's instructions. On column DNase (Qiagen) was used to remove any contaminating DNA. Next, cDNA was formed using iScript cDNA Synthesis Kit (Bio‐Rad) and 100 ng RNA. qRT–PCR was performed with SsoAdvanced Universal SYBR Green Kit (Bio‐Rad). The following primers were used: IL‐8 Forward: […]; IL‐8 Reverse: […]; IL‐6 Forward: […]; IL‐6 Reverse: […]; GAPDH Forward: […]; GAPDH Reverse: […]. For immunofluorescent staining of NF‐ĸB translocation to the cell nucleus, HIOs and Caco‐2 cell monolayers were fixed in 4% formaldehyde (in 1 × PBS) overnight at 4°C. The formaldehyde was removed by washing with 1 × PBS, and an antigen retrieval step was performed by incubating in 10 mM sodium citrate buffer in a vegetable steamer for 20 min. The samples were then blocked with normal donkey serum (10% in PBS with 0.3% Triton X‐100) for 1 h. […]

[4] = test system: NF-κB; test: NF-κB nuclear translocation (immunofluorescence) in human intestinal organoids; format: cell-based; details: 25 μM, with cytokines
Method: as §1

SMILES | TNF-α-induced IL-8 mRNA levels [1] | LEM analysis prediction [2] | NF-κB localisation [3] | NF-κB localisation [4]
O=C(c1ccncc1)c1cc2ccccc2n1S(=O)(=O)c1ccccc1 [FKK5, (1-(phenylsulfonyl)-1H-indol-2-yl)(pyridin-4-yl)methanone] | significantly lowered | best candidates for further studies | increased cytoplasmic | increased cytoplasmic
C#CCC(O)(c1ccncc1)c1cc2ccccc2n1S(=O)(=O)c1ccccc1 (centres unmarked) [FKK6] | did not reach statistical significance | best candidates for further studies | increased cytoplasmic | increased cytoplasmic
